From US8697742B2, “BCRP/ABCG2 inhibitor” (Kabushiki Kaisha Yakult Honsha, priority 2005, dated 2014) come the findings set out here.

In one test the test system is HCT116 cells. The experiment in a line: In vivo tumour growth, HCT116 tumour in nude mice. The arrangement: species or system human. Particulars: solvent + CPT-11 10 mg/kg/day i.v. for seven days (no compound); day 21; parental HCT116. An excerpt: (§1) A solvent was solely administered to a control group. On the day 21 from the start of administration, a tumor was extirpated from each mice and weighed, and the tumor growth inhibition ratio IR (%) was derived from the following equation: Tumor growth inhibition ratio IR(%)=(1−average tumor weight of each administration group/average tumor weight of control group)×100.

For another test, the system named is A549/SN-38-4 cells. Briefly: Effect of overcoming SN-38 resistance of BCRP-expressing A549/SN-38-4 cells. Type of test: cell-based, human. Particulars: Homo sapiens, A549, 48 h, concentration for 50% reduction of relative SN-38 resistance value (IC50 A549/SN-38-4 / IC50 A549); 48 hours culture with SN-38; read-out: Effect of overcoming resistance EC50. The gist of the method:
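A549/SN-38-4 cells and parental A549 cells were seeded at 2×10^3 per well in Ham's F-12 with 10% FBS and precultured overnight at 37 °C. Viable cells were counted colorimetrically with TetraColor ONE after drug culture. A relative resistance value was derived.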

For the next test, the system named is P388/BCRP cells. The experiment in a line: Effect of overcoming SN-38 resistance of human BCRP gene-transduced P388 cells. Format: cell-based, mouse. Particulars: with SN-38, 48 hours, FIG. 1. Here is the method:
(§2) Mouse leukemia P388 cells or human BCRP gene-transduced P388 cells (P388/BCRP cells) (see JP-A-2003-063989) were suspended in 10% FBS/RPMI1640 containing 2-mercaptethanol (50 μM), and the resultant suspension was added to a 96-well microplate (1×10^4 cells/50 μL/well). Thereafter, a solution of each of Compounds 1, 14, 21, 31, 39, and 41 of the present invention and SN-38 in 100 FBS/RPNI1640 (25 μL) was added to each of the wells, followed by culturing at 5% CO2 and 37° C. for 48 hours. After completion of culturing, the number of viable cells was counted by use of TetraColor ONE according to the manufacture's instruction manual.

A further test concerns P388 cells. The experiment in a line: Sensitivity of parental P388 cells to SN-38. The conditions noted are these: with SN-38, 48 hours, FIG. 1. Type of test: cell-based, mouse. How it is done: as §2
For the next test, the system named is K562/MDR cells. Briefly: Effect on paclitaxel (multidrug) resistance of human MDR1 gene-transduced K562 cells. Format: cell-based. The conditions noted are these: Homo sapiens; concentration for 50% reduction of relative paclitaxel resistance value; K562/MDR vs K562; 72 hours; read-out: Effect of overcoming resistance EC50. An excerpt:
After completion of culturing, the number of viable cells was counted by use of TetraColor ONE according to the manufacture's instruction manual.

The subject of another test is K562/BCRP cells. The experiment in a line: Intracellular accumulation of SN-38 in BCRP-expressing cells. Format: cell-based, human. Particulars: compound 500 ng/mL, 37° C. for 30 minutes, FIG. 2. How it is done: (§3) K562 cells or human BCRP gene-transduced K562 cells (K562/BCRP cells) (see JP-A-2003-063989) were suspended in 10% FBS/RPMI1640 (1 mL) (5×10^6 cells/mL), and SN-38 and each of Compounds 1, 39, and 46 of the present invention (final concentration: 500 ng/mL) were added to the resultant suspension, followed by incubation at 37° C. for 30 minutes. Thereafter, centrifugation was performed (2° C., 1,400×g, 1 min), and the resultant supernatant was removed. Ice-cooled PBS containing 1% BSA was added to the thus-pelletized cells, and the cells were resuspended, followed by centrifugation (2° C., 1,400×g, 1 min) for washing the cells. This washing procedure was performed again, followed by addition of PBS (250 μL) and sonication of the cells. To the resultant cell sonicate, methanol (250 μL) and 10% zinc sulfate solution (10 μL) were added, and the resultant mixture was stirred, followed by centrifugation (2° C., 12, 500×g, 5 min) and collection of the supernatant. The thus-collected supernatant was dispensed in a white 96-well microplate for fluorescence intensity measurement (200 μL/well), and then the amount of SN-38 contained in the supernatant was measured by use of a microplate fluorometer [SPECTRA max GEMINI XS (trademark), product of Molecular Devices] […]

The subject of another test is K562 cells. Briefly: Intracellular accumulation of SN-38 in parental K562 cells. Format: cell-based, human. Particulars: compound 500 ng/mL, 37° C. for 30 minutes, FIG. 2. How it is done: as §3
A further test deals with HCT116/BCRP cells. Briefly: Effect of overcoming anticancer agent resistance in vivo, HCT116/BCRP tumour in nude mice. More on the design: species or system human. Particulars: day 21; for Tumor weight Mean ± S.D.: BALB/c nude mice; for Tumor growth inhibition ratio IR: vs control group.
Source text: as §1

The mark [1] stands for this setting: compound 6.3 mg/kg/day + CPT-11 10 mg/kg/day i.v. once a day for seven days.
Where [2] appears, read: compound 12.5 mg/kg/day + CPT-11 10 mg/kg/day i.v. once a day for seven days.

SMILES strings stand for the structures. ≈ marks a conversion by molar mass, not a printed value. Counter-ions that a name gives are not always drawn.

`CCc1c2c(nc3ccc(OC(=O)N4CCC(N5CCCCC5)CC4)cc13)-c1cc3c(c(=O)n1C2)COC(=O)[C@]3(O)CC` [CPT-11, irinotecan hydrochloride]: in the test on HCT116 cells, the “Tumor weight Mean ± S.D.” value was found to be 0.37 ± 0.08 g.

In the case of `COc1ccc(/C(C#N)=C/c2ccc([N+](=O)[O-])s2)cc1OC` [Compound 1, (Z)-2-(3,4-dimethoxy-phenyl)-3-(5-nitro-thiophen-2-yl)-acrylonitrile], the values for the concentration giving a half-maximal response (EC50) in the test on A549/SN-38-4 cells and in the test on K562/MDR cells were 0.006 mg/L (≈ 0.019 µM) and above 5 mg/L, respectively. In the test on P388/BCRP cells, the “Effect of overcoming the SN-38 resistance of the P388/BCRP cells” value (“Effect … of the P388/BCRP cells” for short) is listed as “potent effect of overcoming the SN-38 resistance”. Also, the “Effect on sensitivity of the P388 cells to SN-38” value (“Effect on sensitivity” below) in the test on P388 cells is “did not affect the sensitivity”. In addition, the “Amount of accumulation of SN-38 in the K562/BCRP cells” value with K562/BCRP cells is “increased the amount of accumulation of SN-38”. Moreover, in the test on K562 cells, the “Amount of accumulation of SN-38 in the K562 cells (parental cells)” value is recorded as “virtually unaffected”.

Regarding `COc1ccc(/C(C#N)=C/c2ccc(-c3cccc([N+](=O)[O-])c3)o2)cc1OC` [Compound 21, (Z)-2-(3,4-dimethoxy-phenyl)-3-[5-(3-nitro-phenyl)-furan-2-yl]-acrylonitrile], the EC50 with A549/SN-38-4 cells is 0.02 mg/L (≈ 0.0531 µM); with K562/MDR cells it was above 5 mg/L. In addition, the “Effect … of the P388/BCRP cells” value with P388/BCRP cells was “potent effect of overcoming the SN-38 resistance”. For the same compound, the “Effect on sensitivity” value in the test on P388 cells is “did not affect the sensitivity”.

With `COc1ccc(/C(C#N)=C/c2ccncc2)cc1OC.CS(=O)(=O)O` [Compound 32, (Z)-2-(3,4-dimethoxy-phenyl)-3-pyridin-4-yl-acrylonitrile methanesulfonate], the EC50 in the test with A549/SN-38-4 cells is 0.028 mg/L; with K562/MDR cells, above 5 mg/L. Also, the entries for the “Tumor weight Mean ± S.D.” value in the test with HCT116/BCRP cells (setting [1]) and with HCT116/BCRP cells (setting [2]) were 0.75 ± 0.24 g and 0.52 ± 0.11 g, respectively. Besides, the “Tumor growth inhibition ratio IR” value in the test with HCT116/BCRP cells (setting [1]) is 40.8%; with HCT116/BCRP cells (setting [2]) it was 59.0%.

Turning to `COc1ccc(/C(C#N)=C/c2ccc[nH]2)cc1OC` [Compound 39, (Z)-2-(3,4-dimethoxy-phenyl)-3-(1H-pyrrol-2-yl)-acrylonitrile], the 50% effective concentration (EC50) was 0.037 mg/L (≈ 0.146 µM) in the test on A549/SN-38-4 cells and above 5 mg/L with K562/MDR cells. Besides, in the test on P388/BCRP cells, the “Effect … of the P388/BCRP cells” value is “potent effect of overcoming the SN-38 resistance”. In the test with P388 cells, the “Effect on sensitivity” value was “did not affect the sensitivity”. In the test with K562/BCRP cells, the “Amount of accumulation of SN-38 in the K562/BCRP cells” value is on record as “increased the amount of accumulation of SN-38”. The “Amount of accumulation of SN-38 in the K562 cells (parental cells)” value in the test on K562 cells is “virtually unaffected”.

With `COc1ccc(/C(C#N)=C/c2cnc[nH]2)cc1OC` [Compound 41, (Z)-2-(3,4-dimethoxy-phenyl)-3-(3H-imidazol-4-yl)-acrylonitrile], the EC50 in the test with A549/SN-38-4 cells is 0.28 mg/L (≈ 1.1 µM); in the test on K562/MDR cells, above 5 mg/L. Besides, the “Effect … of the P388/BCRP cells” value in the test on P388/BCRP cells is “potent effect of overcoming the SN-38 resistance”. The “Effect on sensitivity” value with P388 cells was “did not affect the sensitivity”.

As a reminder, the EC50 is the concentration needed to bring the measured effect to its halfway point.
